Patent publication US20070082892A1, “Benzotriazepine derivatives and their use as gastrin and cholecystokinin receptor ligands” (James Black Foundation Limited, priority 2003, published 2007)

What was measured:
[1] = target: T1, gastrin (CCK2) receptor (Rattus norvegicus, UniProt P30553); test: gastrin (CCK2) antagonist activity in an immature rat stomach assay (pentagastrin-stimulated acid secretion); conditions: isolated immature rat stomach, 60 min incubation, cumulative pentagastrin dose-response curves; read-out: CCK2 pKB ± sem (converted)
T1 construct: The oesophagus of immature rats (33-50 g, ca. 21 days old) was ligated; from tissue; host or cells: isolated whole stomach of immature rats
T1 sequence (P30553 1-452): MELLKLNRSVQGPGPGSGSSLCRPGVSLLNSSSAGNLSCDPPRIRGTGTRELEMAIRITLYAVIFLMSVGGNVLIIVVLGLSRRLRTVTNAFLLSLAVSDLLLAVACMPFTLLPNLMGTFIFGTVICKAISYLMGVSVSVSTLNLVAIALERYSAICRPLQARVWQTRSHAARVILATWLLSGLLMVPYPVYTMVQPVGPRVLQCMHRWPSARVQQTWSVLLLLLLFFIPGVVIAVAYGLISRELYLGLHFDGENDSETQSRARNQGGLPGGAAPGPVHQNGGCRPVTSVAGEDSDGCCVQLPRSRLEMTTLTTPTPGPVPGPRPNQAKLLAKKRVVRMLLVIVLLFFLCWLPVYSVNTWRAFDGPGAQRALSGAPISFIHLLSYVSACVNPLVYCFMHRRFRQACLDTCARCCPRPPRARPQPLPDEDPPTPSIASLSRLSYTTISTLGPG
Experimental: Certain compounds of the examples were tested for gastrin (CCK2) antagonist activity in an immature rat stomach assay.
The oesophagus of immature rats (33-50 g, ca. 21 days old) was ligated at the level of the cardiac sphincter and the duodenal sphincter was cannulated. The stomach was excised and flushed with ca. 1 ml of unbuffered physiological saline solution. The fundus was punctured and cannulated. A further 4-5 ml of unbuffered solution was flushed through the stomach to ensure the preparation was not leaking. […] The stomach was continuously perfused at a rate of 1 ml min^−1 with unbuffered solution gassed with 100% O2 with the perfusate passing over an internally referenced pH-electrode fixed 12 cm above the stomach.
After 120 min of stabilisation the drugs were added directly to the serosal solution in the organ bath and after a further 60 min cumulative pentagastrin dose-response curves were started.

[2] = target: T2, human CCK1-receptor (Homo sapiens, UniProt P32238); test: CCK1 radioligand binding, displacement of [3H]-L-364,718 in CHO-K1 cells; conditions: displacement of [3H]-L-364,718, CHO-K1 cells with cloned human CCK1 receptor; S.E.M's on pKi are ±≦0.1
T2 construct: expressed in transfected cells; host or cells: CHO-K1
T2 sequence (P32238 1-428): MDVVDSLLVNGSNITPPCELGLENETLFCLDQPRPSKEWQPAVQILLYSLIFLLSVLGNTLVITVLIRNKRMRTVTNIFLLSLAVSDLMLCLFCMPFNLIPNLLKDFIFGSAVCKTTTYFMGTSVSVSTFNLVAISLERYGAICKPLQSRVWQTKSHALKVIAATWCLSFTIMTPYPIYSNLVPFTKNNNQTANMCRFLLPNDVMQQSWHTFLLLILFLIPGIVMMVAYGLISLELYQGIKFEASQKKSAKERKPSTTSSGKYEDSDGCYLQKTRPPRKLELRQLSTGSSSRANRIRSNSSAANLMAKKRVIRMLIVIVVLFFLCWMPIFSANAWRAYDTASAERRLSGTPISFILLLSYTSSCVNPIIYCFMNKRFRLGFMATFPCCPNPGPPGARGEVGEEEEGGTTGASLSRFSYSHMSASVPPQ
Experimental: The CCK1 activity of the ligands was assessed in a radioligand binding study, looking at the displacement of [^3H]-L-364,718 from sites in CHO-K1 cells into which the human CCK1-receptor sequence has been cloned. S.E.M's on pKi are ±≦0.1

Compound | Kb [1] | Ki [2]
O=C(CN1C(=O)N(CC(=O)N2CCCC2)c2ccccc2N(c2ccccc2)C1=O)Nc1ccc(F)cc1 [Example 2, 2-[2,4-Dioxo-1-(2-oxo-2-pyrrolidin-1-yl-ethyl)-5-phenyl-1,2,4,5-tetrahydro-1,3,5-benzotriazepin-3-yl]-N-(4-fluoro-phenyl)-acetamide] | 2.24 µM | 7.94 µM
CC(C)(C)C(=O)CN1C(=O)N(CC(=O)Nc2cccc(-c3nc(=O)o[nH]3)c2)C(=O)N(C2CCCCCC2)c2ccccc21 [Example 12, 2-[1-Cycloheptyl-5-(3,3-dimethyl-2-oxo-butyl)-2,4-dioxo-1,2,4,5-tetrahydro-1,3,5-benzotriazepin-3-yl]-N-[3-(5-oxo-2,5-dihydro-[1,2,4]-oxadiazol-3-yl)-phenyl]-acetamide] | 0.00324 µM | 0.126 µM
CC(C)(C)C(=O)CN1C(=O)N(CC(=O)Nc2cccc(SCC(=O)O)c2)C(=O)N(C2CCCCCC2)c2ccccc21 [Example 11, (3-{2-[1-Cycloheptyl-5-(3,3-dimethyl-2-oxo-butyl)-2,4-dioxo-1,2,4,5-tetrahydro-1,3,5-benzotriazepin-3-yl]-acetylamino}-phenylsulfanyl)-acetic acid] | 0.00447 µM | 0.251 µM
CN(c1cccc(NC(=O)CN2C(=O)N(CC(=O)C(C)(C)C)c3ccccc3N(C3CCCCC3)C2=O)c1)c1nn[nH]n1 [Example 16, 2-[1-Cyclohexyl-5-(3,3-dimethyl-2-oxo-butyl)-2,4-dioxo-1,2,4,5-tetrahydro-1,3,5-benzotriazepin-3-yl]-N-{3-[methyl-(2H-tetrazol-5-yl)-amino]-phenyl}-acetamide] | – | 2 µM
CC(C)(C)C(=O)CN1C(=O)N(CC(=O)Nc2cccc(CCC(=O)O)c2)C(=O)N(C2CCCCC2)c2ccccc21 [Example 14, 3-(3-{2-[1-Cyclohexyl-5-(3,3-dimethyl-2-oxo-butyl)-2,4-dioxo-1,2,4,5-tetrahydro-1,3,5-benzotriazepin-3-yl]-acetylamino}-phenyl)-propionic acid] | 0.0263 µM | 2.51 µM
CC(C)(C)C(=O)CN1C(=O)N(CCCC(=O)Nc2cccc(-c3nc(=O)o[nH]3)c2)C(=O)N(C2CCCCC2)c2ccccc21 [Example 19, 4-[1-Cyclohexyl-5-(3,3-dimethyl-2-oxo-butyl)-2,4-dioxo-1,2,4,5-tetrahydro-1,3,5-benzotriazepin-3-yl]-N-[3-(5-oxo-2,5-dihydro-[1,2,4]oxadiazol-3-yl)-phenyl]-butyramide] | 0.0871 µM | –
CC(C)(C)C(=O)CN1C(=O)N(CC(=O)Nc2cccc(SCC(=O)OCc3ccccc3)c2)C(=O)N(C2CCCCCC2)c2ccccc21 [Example 10] | 0.00676 µM | 0.1 µM
O=C(CN1C(=O)N(CC(=O)N2CCCC2)c2ccccc2N(c2ccccc2)C1=O)Nc1cccc(C(=O)O)c1 [Example 3, 3-{2-[2,4-Dioxo-1-(2-oxo-2-pyrrolidin-1-yl-ethyl)-5-phenyl-1,2,4,5-tetrahydro-1,3,5-benzotriazepin-3-yl]-acetylamino}-benzoic acid] | 0.708 µM | > 10 µM
CNc1cccc(NC(=O)CN2C(=O)N(CC(=O)C(C)(C)C)c3ccccc3N(C3CCCCC3)C2=O)c1 [Example 13, 2-[1-Cyclohexyl-5-(3,3-dimethyl-2-oxo-butyl)-2,4-dioxo-1,2,4,5-tetrahydro-1,3,5-benzotriazepin-3-yl]-N-(3-methylamino-phenyl)-acetamide] | 0.0195 µM | 2.51 µM
Cc1nc(-c2cccc(NC(=O)CN3C(=O)N(CC(=O)C(C)(C)C)c4ccccc4N(C4CCCCC4)C3=O)c2)cs1 [Example 15, 2-[1-Cyclohexyl-5-(3,3-dimethyl-2-oxo-butyl)-2,4-dioxo-1,2,4,5-tetrahydro-1,3,5-benzotriazepin-3-yl]-N-[3-(2-methyl-thiazol-4-yl)-phenyl]-acetamide] | – | 1.58 µM
CC(C)(C)C(=O)CN1C(=O)N(CC(=O)Nc2cccc(CC(=O)O)c2)C(=O)N(C2CCCCCC2)c2ccccc21 [Example 8, (3-{2-[1-Cycloheptyl-5-(3,3-dimethyl-2-oxo-butyl)-2,4-dioxo-1,2,4,5-tetrahydro-1,3,5-benzotriazepin-3-yl]-acetylamino}-phenyl)-acetic acid] | 0.0437 µM | 3.98 µM
